Test results: PMC10233829 (ACS Omega, 2023)
≈ marks a conversion by molar mass, not a printed value.

Experiments:
S. aureus NCTC 4163 = assay: MIC, twofold microdilution, standard strain; format: cell-based; conditions: Staphylococcus aureus, NCTC4163, 18 h
S. aureus ATCC 25923 = assay: MIC, twofold microdilution, standard strain; format: cell-based; conditions: Staphylococcus aureus, ATCC25923, 18 h
S. aureus ATCC 6538 = assay: MIC, twofold microdilution, standard strain; format: cell-based, Staphylococcus aureus; conditions: Staphylococcus aureus, ATCC6538; standard strain, 18 h
S. aureus ATCC 29213 = assay: MIC, twofold microdilution, standard strain; format: cell-based; conditions: Staphylococcus aureus, ATCC29213, 18 h
[1] = system: S. epidermidis ATCC 12228; assay: MIC, twofold microdilution, standard strain; format: cell-based; conditions: Staphylococcus epidermidis, ATCC12228, 18 h
[2] = system: S. epidermidis ATCC 35984; assay: MIC, twofold microdilution, standard strain; format: cell-based; conditions: Staphylococcus epidermidis, ATCC35984, 18 h
P. aeruginosa ATCC 15442 = assay: MIC, twofold microdilution, standard strain; format: cell-based, Pseudomonas aeruginosa; conditions: Pseudomonas aeruginosa, ATCC15442; standard strain, 18 h
E. coli ATCC 25922 = assay: MIC, twofold microdilution, standard strain; format: cell-based, Escherichia coli; conditions: Escherichia coli, ATCC25922; standard strain, 18 h
S. aureus 180 = assay: MIC, twofold microdilution, clinical strain; format: cell-based; conditions: Staphylococcus aureus, 18 h
S. aureus 5595 = assay: MIC, twofold microdilution, clinical strain; format: cell-based; conditions: Staphylococcus aureus, 18 h
S. aureus T5595 = assay: MIC, twofold microdilution, clinical strain; format: cell-based, Staphylococcus aureus; conditions: Staphylococcus aureus, T5595, 18 h
S. aureus T5591 = assay: MIC, twofold microdilution, clinical strain; format: cell-based, Staphylococcus aureus; conditions: Staphylococcus aureus, T5591, 18 h
S. epidermidis 4341 = assay: MIC, twofold microdilution, clinical strain; format: cell-based; conditions: Staphylococcus epidermidis, 18 h
S. epidermidis 5253 = assay: MIC, twofold microdilution, clinical strain; format: cell-based, Staphylococcus epidermidis; conditions: Staphylococcus epidermidis, 5253, 18 h
S. epidermidis KR4243/1 = assay: MIC, twofold microdilution, clinical strain; format: cell-based; conditions: Staphylococcus epidermidis, 18 h
S. pasteuri KR 4358 = assay: MIC, twofold microdilution, clinical strain; format: cell-based; conditions: Staphylococcus pasteuri, KR4358, 18 h
P. aeruginosa 37 = assay: MIC, twofold microdilution, clinical strain; format: cell-based; conditions: Pseudomonas aeruginosa, 18 h
P. aeruginosa 659 = assay: MIC, twofold microdilution, clinical strain; format: cell-based; conditions: Pseudomonas aeruginosa, 18 h
E. coli 951 = assay: MIC, twofold microdilution, clinical strain; format: cell-based; conditions: Escherichia coli, 18 h
E. coli 520 = assay: MIC, twofold microdilution, clinical strain; format: cell-based; conditions: Escherichia coli, 18 h
E. coli 600 = assay: MIC, twofold microdilution, clinical strain; format: cell-based, Escherichia coli; conditions: Escherichia coli, 600, 18 h
E. cloacae 8 = assay: MIC, twofold microdilution, clinical strain; format: cell-based, Escherichia cloacae; conditions: Enterobacter cloacae, 8; clinical strain, 18 h
K. pneumoniae 28 = assay: MIC, twofold microdilution, clinical strain; format: cell-based; conditions: Klebsiella pneumoniae, 18 h
K. pneumoniae 510 = assay: MIC, twofold microdilution, clinical strain; format: cell-based, Klebsiella pneumoniae; conditions: Klebsiella pneumoniae, 510; clinical strain, 18 h
M. tuberculosis H37Rv = assay: Tuberculostatic activity, Microplate Alamar Blue Assay (MIC); format: cell-based, Mycobacterium tuberculosis; conditions: Mycobacterium tuberculosis, H37RV; MABA; read-out: MIC M. tuberculosis H37Rv
[3] = system: M. tuberculosis Spec. 192; assay: as above; format: cell-based; conditions: Mycobacterium tuberculosis, MABA, read-out: MIC M. tuberculosis Spec. 192 (sensitive to tuberculostatics)
M. tuberculosis Spec 210 = assay: microbe, parasite or virus in culture; format: cell-based, Mycobacterium tuberculosis; conditions: M. tuberculosis Spec. 210
S. aureus DNA gyrase = S. aureus DNA gyrase (Staphylococcus aureus, UniProt P0A0K8+P20831); assay: biochemical; conditions: supercoiling of relaxed pBR322
Experimental: The enzymatic assay was carried using commercial topoisomerases type II as previously described by Alt et al.[55] with some modifications.
Briefly, 1 U of the enzyme (gyrase or topo IV, Inspiralis. Norwich, UK) isolated from S. aureus converts […] of relaxed pBR322 DNA to the supercoiled form (gyrase) or decatenates 200 ng of kinetoplast DNA (topo IV). […] The reactions were terminated by adding an equal volume of STEB buffer (40% sucrose, 100 mM Tris–HCl pH 8, 10 mM EDTA, and 0.5 mg/mL bromophenol blue), followed by extraction with 1 volume of chloroform/isoamyl alcohol (24:1). The samples were vortexed and centrifuged, and 20 μL of the aqueous phase of each sample was loaded onto a 1% agarose gel and left for 30 min prior to electrophoresis to allow diffusion of salt. […] Gels were stained with ethidium bromide and visualized under UV light in a transilluminator (ChemiDoc MP, Bio Rad).

[4] = target: T1, S. aureus topoisomerase IV (Staphylococcus aureus, UniProt P0C1S7+P0C1U9); assay: Topoisomerase IV decatenation assay; format: biochemical; conditions: decatenation of kinetoplast DNA; read-out: IC50 S. aureus topoisomerase IV (converted)
T1 construct: purchased Inspiralis, Norwich, UK
Experimental: Briefly, 1 U of the enzyme (gyrase or topo IV, Inspiralis. Norwich, UK) isolated from S. aureus converts 0.5 mg of relaxed pBR322 DNA to the supercoiled form (gyrase) or decatenates 200 ng of kinetoplast DNA (topo IV). […] The reactions were terminated by adding an equal volume of STEB buffer (40% sucrose, 100 mM Tris–HCl pH 8, 10 mM EDTA, and 0.5 mg/mL bromophenol blue), followed by extraction with 1 volume of chloroform/isoamyl alcohol (24:1). The samples were vortexed and centrifuged, and 20 μL of the aqueous phase of each sample was loaded onto a 1% agarose gel and left for 30 min prior to electrophoresis to allow diffusion of salt. […] Gels were stained with ethidium bromide and visualized under UV light in a transilluminator (ChemiDoc MP, Bio Rad).

PC3 cells = assay: MTT assay, cytotoxic activity; format: cell-based, human; conditions: Homo sapiens, PC-3, 72 h, MTT, 72 h
How it was run: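 Cytotoxicity readout: relative MTT level (%), i.e. absorbance of compound-treated PC3 cells divided by that of untreated controls, ×100. Cultures were kept in a humidified 37 °C, 5% CO2 incubator.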

[5] = MTT assay, cytotoxic activity; format: cell-based; conditions: human, HaCaT cells (immortal keratinocytes); MTT, 72 h, normal cell line; read-out: IC50 HaCaT
How it was run: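 Viability was calculated as A/B × 100%, with A the absorbance of treated samples and B that of untreated controls, from MTT reduction. Cells were cultured in a humidified 37 °C/5% CO2 incubator.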

[6] = system: Staphylococci (standard strains); assay: MIC, standard Gram-positive strains as a panel; format: cell-based, S. aureus, S. epidermidis
[7] = system: P. aeruginosa ATCC 15442 and E. coli ATCC 25922; assay: MIC, standard Gram-negative rods as a panel; format: cell-based; conditions: P. aeruginosa ATCC 15442, E. coli ATCC 25922; read-out: MIC against standard Gram-negative rods (range over strains)
[8] = system: clinical bacterial strains; assay: MIC, clinical isolates as groups of strains; format: cell-based; conditions: S. aureus 180 and 5595

T1 sequence (P0C1U9 whole entry): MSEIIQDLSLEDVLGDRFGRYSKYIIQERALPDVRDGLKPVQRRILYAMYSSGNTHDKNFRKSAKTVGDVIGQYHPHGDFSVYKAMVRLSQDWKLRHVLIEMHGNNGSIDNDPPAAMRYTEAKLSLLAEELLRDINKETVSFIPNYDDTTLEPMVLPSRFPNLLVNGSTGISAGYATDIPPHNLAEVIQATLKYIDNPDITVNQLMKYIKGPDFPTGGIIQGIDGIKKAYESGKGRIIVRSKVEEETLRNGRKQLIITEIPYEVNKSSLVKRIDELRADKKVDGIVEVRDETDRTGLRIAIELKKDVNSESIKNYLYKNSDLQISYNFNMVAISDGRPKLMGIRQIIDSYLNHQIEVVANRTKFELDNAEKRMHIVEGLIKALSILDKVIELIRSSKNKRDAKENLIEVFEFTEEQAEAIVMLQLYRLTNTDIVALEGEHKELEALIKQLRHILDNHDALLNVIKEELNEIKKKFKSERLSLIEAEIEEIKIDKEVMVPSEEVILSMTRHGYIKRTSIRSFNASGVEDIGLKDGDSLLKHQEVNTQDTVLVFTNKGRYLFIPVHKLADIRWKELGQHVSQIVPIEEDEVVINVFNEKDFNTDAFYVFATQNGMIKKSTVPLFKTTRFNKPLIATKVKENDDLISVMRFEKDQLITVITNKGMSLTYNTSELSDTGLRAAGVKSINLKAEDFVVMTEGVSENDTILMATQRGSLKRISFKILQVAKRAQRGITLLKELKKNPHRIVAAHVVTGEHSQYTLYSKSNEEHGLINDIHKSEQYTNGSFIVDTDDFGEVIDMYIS
T1 sequence (P0C1S7 whole entry): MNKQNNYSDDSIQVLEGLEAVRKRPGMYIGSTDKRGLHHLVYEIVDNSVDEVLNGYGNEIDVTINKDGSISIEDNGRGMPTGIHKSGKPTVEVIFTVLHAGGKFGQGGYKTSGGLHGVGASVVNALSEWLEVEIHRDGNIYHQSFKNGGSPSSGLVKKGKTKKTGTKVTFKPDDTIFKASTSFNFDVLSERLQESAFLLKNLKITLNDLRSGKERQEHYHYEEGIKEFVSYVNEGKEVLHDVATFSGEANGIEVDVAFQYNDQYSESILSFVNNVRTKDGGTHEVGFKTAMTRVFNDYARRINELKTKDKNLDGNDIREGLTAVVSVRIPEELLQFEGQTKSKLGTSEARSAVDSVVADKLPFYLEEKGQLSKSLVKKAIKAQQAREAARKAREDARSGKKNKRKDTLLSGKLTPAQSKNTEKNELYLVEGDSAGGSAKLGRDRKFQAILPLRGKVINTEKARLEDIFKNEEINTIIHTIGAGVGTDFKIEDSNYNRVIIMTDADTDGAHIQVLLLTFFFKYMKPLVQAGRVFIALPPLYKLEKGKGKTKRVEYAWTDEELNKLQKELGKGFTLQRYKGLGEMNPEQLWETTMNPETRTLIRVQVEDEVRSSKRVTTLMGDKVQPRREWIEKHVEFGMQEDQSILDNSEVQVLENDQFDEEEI
Sequence of S. aureus DNA gyrase (P0A0K8 whole entry): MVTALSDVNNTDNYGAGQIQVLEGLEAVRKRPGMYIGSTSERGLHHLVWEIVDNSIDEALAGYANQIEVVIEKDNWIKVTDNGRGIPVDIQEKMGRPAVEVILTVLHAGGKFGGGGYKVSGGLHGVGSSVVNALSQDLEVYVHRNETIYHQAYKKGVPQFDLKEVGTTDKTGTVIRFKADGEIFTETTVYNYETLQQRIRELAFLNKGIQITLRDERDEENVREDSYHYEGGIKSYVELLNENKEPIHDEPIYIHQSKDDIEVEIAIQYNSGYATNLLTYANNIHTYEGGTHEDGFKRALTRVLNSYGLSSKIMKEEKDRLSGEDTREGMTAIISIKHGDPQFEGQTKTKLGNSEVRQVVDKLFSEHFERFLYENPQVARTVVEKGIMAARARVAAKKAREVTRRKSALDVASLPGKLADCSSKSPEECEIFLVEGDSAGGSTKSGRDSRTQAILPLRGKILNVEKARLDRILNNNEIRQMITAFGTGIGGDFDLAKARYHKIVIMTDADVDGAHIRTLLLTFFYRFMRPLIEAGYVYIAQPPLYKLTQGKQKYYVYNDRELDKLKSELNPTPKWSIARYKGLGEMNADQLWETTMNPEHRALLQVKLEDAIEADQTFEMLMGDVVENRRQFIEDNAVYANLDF
Sequence of S. aureus DNA gyrase (P20831 whole entry): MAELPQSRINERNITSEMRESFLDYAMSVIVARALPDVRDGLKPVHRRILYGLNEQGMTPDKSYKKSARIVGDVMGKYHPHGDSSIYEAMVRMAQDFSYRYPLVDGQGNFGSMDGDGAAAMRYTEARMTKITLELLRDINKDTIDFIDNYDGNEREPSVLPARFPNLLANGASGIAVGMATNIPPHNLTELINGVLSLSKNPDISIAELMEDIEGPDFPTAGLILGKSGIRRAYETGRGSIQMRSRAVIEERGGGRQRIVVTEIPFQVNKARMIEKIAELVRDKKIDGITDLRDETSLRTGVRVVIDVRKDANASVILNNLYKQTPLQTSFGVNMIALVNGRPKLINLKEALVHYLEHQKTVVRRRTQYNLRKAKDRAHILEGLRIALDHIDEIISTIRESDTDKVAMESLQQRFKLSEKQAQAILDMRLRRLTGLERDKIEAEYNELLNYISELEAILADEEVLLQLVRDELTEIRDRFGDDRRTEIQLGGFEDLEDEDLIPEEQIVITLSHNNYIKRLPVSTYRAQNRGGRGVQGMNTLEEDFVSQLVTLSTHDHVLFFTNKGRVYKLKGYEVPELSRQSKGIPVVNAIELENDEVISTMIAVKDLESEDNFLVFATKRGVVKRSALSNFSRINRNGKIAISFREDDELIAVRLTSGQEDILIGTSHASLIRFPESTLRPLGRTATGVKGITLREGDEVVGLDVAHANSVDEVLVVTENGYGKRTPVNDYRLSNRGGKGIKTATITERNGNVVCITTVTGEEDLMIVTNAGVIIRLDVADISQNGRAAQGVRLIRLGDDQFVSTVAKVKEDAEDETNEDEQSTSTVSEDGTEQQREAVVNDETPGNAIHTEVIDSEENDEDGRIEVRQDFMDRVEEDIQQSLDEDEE

Compound | MIC (S. aureus NCTC 4163) | MIC (S. aureus ATCC 25923) | MIC (S. aureus ATCC 6538) | MIC (S. aureus ATCC 29213) | MIC [1] | MIC [2] | MIC (P. aeruginosa ATCC 15442) | MIC (E. coli ATCC 25922) | MIC (S. aureus 180) | MIC (S. aureus 5595) | MIC (S. aureus T5595) | MIC (S. aureus T5591) | MIC (S. epidermidis 4341) | MIC (S. epidermidis 5253) | MIC (S. epidermidis KR4243/1) | MIC (S. pasteuri KR 4358) | MIC (P. aeruginosa 37) | MIC (P. aeruginosa 659) | MIC (E. coli 951) | MIC (E. coli 520) | also measured
C=CC(=O)N1CCN(c2cc3c(cc2F)c(=O)c(C(=O)O)cn3C2CC2)CC1 [Compound 1, 7-(4-Acryloyl-piperazin-1-yl)-1-cyclopropyl-6-fluoro-4-oxo-1,4-dihydro-quinoline-3-carboxylic Acid] | 0.05 µg/mL (≈ 0.13 µM) | 0.05 µg/mL (≈ 0.13 µM) | 0.05 µg/mL (≈ 0.13 µM) | 0.1 µg/mL (≈ 0.259 µM) | 0.1 µg/mL (≈ 0.259 µM) | 0.05 µg/mL (≈ 0.13 µM) | 3.2 µg/mL (≈ 8.3 µM) | 0.1 µg/mL (≈ 0.259 µM) | 0.8 µg/mL (≈ 2.08 µM) | 0.8 µg/mL (≈ 2.08 µM) | 0.4 µg/mL (≈ 1.04 µM) | 0.8 µg/mL (≈ 2.08 µM) | > 25.6 µg/mL | > 25.6 µg/mL | 0.4 µg/mL (≈ 1.04 µM) | 0.4 µg/mL (≈ 1.04 µM) | > 25.6 µg/mL | > 25.6 µg/mL | > 25.6 µg/mL | 1.6 µg/mL (≈ 4.15 µM) | MIC (E. coli 600): > 25.6 µg/mL; MIC (E. cloacae 8): 3.2 µg/mL (≈ 8.3 µM); MIC (K. pneumoniae 28): > 25.6 µg/mL; MIC (K. pneumoniae 510): > 25.6 µg/mL; MIC (M. tuberculosis H37Rv): 4 µg/mL (≈ 10.4 µM); MIC [3]: 4 µg/mL (≈ 10.4 µM); fold more effective than the reference tuberculostatics (M. tuberculosis Spec 210): 8–32 fold; IC50 (S. aureus DNA gyrase): 23.9 µM; IC50 [4]: 25.9 µM; IC50 (PC3 cells): 68.7 ± 3.4 µM; IC50 at 72 h [5]: 100 ± 1.2 µM; times higher potency than CP ([6]; S. aureus NCTC 4163 and ATCC 25923): 5–10 times; MIC ([6]; read-out: MIC toward standard Staphylococci (range over strains)): 0.05 to 0.4 µg/mL (≈ 0.13 to 1.04 µM); fold more active than CP toward standard Staphylococci ([6]; standard Gram-positive strains of Table 1): 1.25–10 fold; MIC [7]: ≤ 1 µg/mL; share of CP inhibitory activity [8]: 62.5%
O=C(O)c1cn(C2CC2)c2cc(N3CCN(CCCCC(=O)N4CCN(c5cc6c(cc5F)c(=O)c(C(=O)O)cn6C5CC5)CC4)CC3)c(F)cc2c1=O [Compound 19, CP–Pentanoyl–CP Dimer] | 0.4 µg/mL (≈ 0.537 µM) | 0.8 µg/mL (≈ 1.07 µM) | 0.4 µg/mL (≈ 0.537 µM) | 0.8 µg/mL (≈ 1.07 µM) | 0.8 µg/mL (≈ 1.07 µM) | 0.8 µg/mL (≈ 1.07 µM) | 3.2 µg/mL (≈ 4.3 µM) | 0.4 µg/mL (≈ 0.537 µM) | 1.6 µg/mL (≈ 2.15 µM) | 0.8 µg/mL (≈ 1.07 µM) | 1.6 µg/mL (≈ 2.15 µM) | 0.8 µg/mL (≈ 1.07 µM) | > 25.6 µg/mL | > 25.6 µg/mL | 1.6 µg/mL (≈ 2.15 µM) | 1.6 µg/mL (≈ 2.15 µM) | > 25.6 µg/mL | 25.6 µg/mL (≈ 34.4 µM) | 25.6 µg/mL (≈ 34.4 µM) | 3.2 µg/mL (≈ 4.3 µM) | MIC (E. coli 600): 3.2 µg/mL (≈ 4.3 µM); MIC (E. cloacae 8): 3.2 µg/mL (≈ 4.3 µM); MIC (K. pneumoniae 28): > 25.6 µg/mL; MIC (K. pneumoniae 510): > 25.6 µg/mL; MIC (M. tuberculosis H37Rv): 8 µg/mL (≈ 10.7 µM); MIC [3]: 8 µg/mL (≈ 10.7 µM); fold more effective than the reference tuberculostatics (M. tuberculosis Spec 210): 8–32 fold; IC50 (PC3 cells): 71.4 ± 3.2 µM; IC50 at 72 h [5]: 72.9 ± 5.7 µM; MIC [7]: ≤ 1 µg/mL; share of CP inhibitory activity [8]: 62.5%; melting point: 170.3 to 171.9 °C
